Several values for one entry are separate records, joined by “and”; a condition that tells them apart may be missing. Identical values can stand only once. ± gives the expanded uncertainty stated by the source.
Key:
[1] = Liquid, Vibrating tube method
[2] = xn = mol fraction of the nth substance listed; details: Liquid, Vibrating tube method, x1 = 1

C=CC(C)(O)CCC=C(C)C (configuration not stated) [3,7-dimethyl-1,6-octadien-3-ol]
mass density ([1]; 283.15 K, 100 kPa): 869.2 ± 1.1 kg/m3 and 869.5 ± 1.1 kg/m3
mass density ([1]; 283.15 K, 5000 kPa): 872.3 ± 1.1 kg/m3 and 872.6 ± 1.1 kg/m3
mass density ([1]; 283.15 K, 10000 kPa): 875.2 ± 1.2 kg/m3 and 875.7 ± 1.2 kg/m3
mass density ([1]; 283.15 K, 15000 kPa): 878.2 ± 1.2 kg/m3 and 878.7 ± 1.2 kg/m3
mass density ([1]; 283.15 K, 20000 kPa): 881 ± 1.2 kg/m3 and 881.5 ± 1.2 kg/m3
mass density ([1]; 283.18 K, 15000 kPa): 878.7 ± 1.2 kg/m3
mass density ([1]; 298.15 K, 100 kPa): 856.9 ± 1.1 kg/m3 and 857.3 ± 1.1 kg/m3
mass density ([1]; 298.15 K, 5000 kPa): 860.1 ± 1.1 kg/m3 and 860.6 ± 1.1 kg/m3
mass density ([1]; 298.15 K, 10000 kPa): 863.5 ± 1.2 kg/m3 and 863.9 ± 1.2 kg/m3
mass density ([1]; 298.15 K, 15000 kPa): 866.6 ± 1.2 kg/m3 and 867 ± 1.2 kg/m3
mass density ([1]; 298.15 K, 20000 kPa): 869.6 ± 1.2 kg/m3 and 870 ± 1.2 kg/m3
mass density ([1]; 313.15 K, 100 kPa): 844.1 ± 1.1 kg/m3 and 844.5 ± 1.1 kg/m3
mass density ([1]; 313.15 K, 5000 kPa): 847.8 ± 1.1 kg/m3 and 848.2 ± 1.1 kg/m3
mass density ([1]; 313.15 K, 10000 kPa): 851.3 ± 1.1 kg/m3 and 851.6 ± 1.1 kg/m3
mass density ([1]; 313.15 K, 15000 kPa): 854.8 ± 1.2 kg/m3 and 855 ± 1.2 kg/m3
mass density ([1]; 313.15 K, 20000 kPa): 858.1 ± 1.2 kg/m3 and 858.4 ± 1.2 kg/m3
mass density ([1]; 328.15 K, 100 kPa): 831.3 ± 1.1 kg/m3 and 831.7 ± 1.1 kg/m3
mass density ([1]; 328.15 K, 5000 kPa): 835.2 ± 1.1 kg/m3 and 835.6 ± 1.1 kg/m3
mass density ([1]; 328.15 K, 10000 kPa): 839.1 ± 1.1 kg/m3 and 839.5 ± 1.1 kg/m3
mass density ([1]; 328.15 K, 15000 kPa): 842.7 ± 1.2 kg/m3 and 843.1 ± 1.2 kg/m3
mass density ([1]; 328.15 K, 20000 kPa): 846.3 ± 1.2 kg/m3 and 846.7 ± 1.2 kg/m3
mass density ([1]; 328.18 K, 10000 kPa): 839.5 ± 1.1 kg/m3

CC(C)O [propan-2-ol] + C=CC(C)(O)CCC=C(C)C
mass density ([2]; 283.15 K, 100 kPa): 793.7 ± 1 kg/m3
mass density ([2]; 283.15 K, 5000 kPa): 797.5 ± 1 kg/m3
mass density ([2]; 283.15 K, 10000 kPa): 801.3 ± 1 kg/m3
mass density ([2]; 283.15 K, 20000 kPa): 808.9 ± 1 kg/m3
mass density ([2]; 283.18 K, 15000 kPa): 805.2 ± 1 kg/m3
mass density ([2]; 298.15 K, 100 kPa): 781.2 ± 1 kg/m3
mass density ([2]; 298.15 K, 5000 kPa): 785.5 ± 1 kg/m3
mass density ([2]; 298.15 K, 10000 kPa): 789.7 ± 1 kg/m3
mass density ([2]; 298.15 K, 15000 kPa): 793.8 ± 1 kg/m3
mass density ([2]; 298.15 K, 20000 kPa): 797.6 ± 1 kg/m3
mass density ([2]; 313.15 K, 100 kPa): 768.1 ± 1 kg/m3
mass density ([2]; 313.15 K, 5000 kPa): 773 ± 1 kg/m3
mass density ([2]; 313.15 K, 10000 kPa): 777.5 ± 1 kg/m3
mass density ([2]; 313.15 K, 15000 kPa): 781.9 ± 1 kg/m3
mass density ([2]; 313.15 K, 20000 kPa): 786.1 ± 1 kg/m3
mass density ([2]; 328.15 K, 100 kPa): 754.4 ± 1 kg/m3
mass density ([2]; 328.15 K, 5000 kPa): 759.6 ± 1 kg/m3
mass density ([2]; 328.15 K, 15000 kPa): 769.5 ± 1 kg/m3
mass density ([2]; 328.15 K, 20000 kPa): 774 ± 1 kg/m3
mass density ([2]; 328.18 K, 10000 kPa): 764.8 ± 1 kg/m3

CC(C)O [propan-2-ol]
mass density ([1]; 283.15 K, 100 kPa): 793.7 ± 1 kg/m3
mass density ([1]; 283.15 K, 5000 kPa): 797.5 ± 1 kg/m3
mass density ([1]; 283.15 K, 10000 kPa): 801.3 ± 1 kg/m3
mass density ([1]; 283.15 K, 20000 kPa): 808.9 ± 1 kg/m3
mass density ([1]; 283.18 K, 15000 kPa): 805.2 ± 1 kg/m3
mass density ([1]; 298.15 K, 100 kPa): 781.2 ± 1 kg/m3
mass density ([1]; 298.15 K, 5000 kPa): 785.5 ± 1 kg/m3
mass density ([1]; 298.15 K, 10000 kPa): 789.7 ± 1 kg/m3
mass density ([1]; 298.15 K, 15000 kPa): 793.8 ± 1 kg/m3
mass density ([1]; 298.15 K, 20000 kPa): 797.6 ± 1 kg/m3
mass density ([1]; 313.15 K, 100 kPa): 768.1 ± 1 kg/m3
mass density ([1]; 313.15 K, 5000 kPa): 773 ± 1 kg/m3
mass density ([1]; 313.15 K, 10000 kPa): 777.5 ± 1 kg/m3
mass density ([1]; 313.15 K, 15000 kPa): 781.9 ± 1 kg/m3
mass density ([1]; 313.15 K, 20000 kPa): 786.1 ± 1 kg/m3
mass density ([1]; 328.15 K, 100 kPa): 754.4 ± 1 kg/m3
mass density ([1]; 328.15 K, 5000 kPa): 759.6 ± 1 kg/m3
mass density ([1]; 328.15 K, 15000 kPa): 769.5 ± 1 kg/m3
mass density ([1]; 328.15 K, 20000 kPa): 774 ± 1 kg/m3
mass density ([1]; 328.18 K, 10000 kPa): 764.8 ± 1 kg/m3

Source: the NIST ThermoML archive (doi:10.1021/je100581m)
